Test in series [1]: not given
The source holds these as a separate data set.

Test in series [2]: not given
The source holds these as a separate data set.

Test in series [3]: not given
The source holds these as a separate data set.

Test in series [4]: not given
This is another data set of the same source.

`CC(C)(CO)[C@@H](O)C(=O)NCCCO` came in with a flash point of 113.00 °C.
Take `CC(C)C(=O)OCC(C)(C)C(O)C(C)C` (stereo not drawn): the flash point is 120.00 °C.
On the same count and under the same terms, the value for `CO[C@H]1CO[C@H]2[C@@H]1OC[C@H]2OC` was 103.00 °C; that for `O=C(OCC1CCC(COC(=O)c2ccccc2)CC1)c1ccccc1` (stereo not drawn) was 161.00 °C.
Take `C1=CCCC=C1` [1,3-cyclohexadiene]: the flash point was -16 °C in series [1] and 26 °C in series [2].
Consider `OC(CBr)CCBr` (stereo not drawn) [1,4-dibromobutan-2-ol], for which the flash point was 113.00 °C.
In turn, `CC(O)CNCC(C)O` (stereo not drawn) [1-(2-hydroxypropylamino)propan-2-ol] gave a flash point of 126.00 °C.
The same measure, in the same setting: to `O=C1CCCN1C1CCCCC1` [1-cyclohexyl-2-pyrrolidinone] belongs 145.00 °C.
On to `C=CCCCCCCCCCCCCCCC` [1-heptadecene], for which the flash point in series [3] was 141 °C; in series [1], 135 °C.
For the compound `C=CCCCCCCCCCCC` [1-tridecene], the flash point is 92 °C in series [3], 79 °C in series [1] and 80 °C in series [2].
Regarding `OCC(F)(F)F` [2,2,2-trifluoroethanol], the flash point was determined as 29.00 °C.
With `CC(C)C(C)(C)C` [2,2,3-trimethylbutane], the flash point in series [1] was -24 °C; in series [2], -6 °C.
The compound `CC(C)CC(C)(C)CO` [2,2,4-trimethylpentan-1-ol] came in with a flash point of 60.00 °C.
Regarding `CCCC(C)C(C)C` (stereo not drawn) [2,3-dimethylhexane], the figures for the flash point in series [1] and in series [2] were 5 °C and -3 °C, respectively.
Compound `CC(C)(O)C#CC(C)(C)O` [2,5-dimethylhex-3-yne-2,5-diol] had a flash point of 73.90 °C.
In the case of `NCCOCCO` [2-(2-aminoethoxy)ethanol], the flash point was 127.00 °C.
Still for that read-out and setting: the value for `C=CCOCC1CO1` (stereo not drawn) [2-(allyloxymethyl)oxirane] was 48.00 °C.
Still for that read-out and setting: to `CC(O)COC(C)COC(C)CO` (stereo not drawn) [2-[2-(2-hydroxypropoxy)propoxy]propan-1-ol] belongs 143.33 °C; to `COC(C)(C)C` [2-methoxy-2-methylpropane], -34.44 °C.
Regarding `CCCCCC(C)C` [2-methylheptane], the results for the flash point in series [4] and in series [1] were 4.00 °C and 5 °C, respectively.
The compound `C=C(C)C` [2-methylprop-1-ene] registered a flash point of -116.00 °C.
`CC(C)CO` [2-methylpropan-1-ol] had a flash point of 30.00 °C. This compound returned a flash point in series [4] of 28.00 °C.
In the same order, the values of `CC(C)(C)N` [2-methylpropan-2-amine] are -38.00 °C and 10.00 °C.
In the case of `CC#CCCCCC` [2-octyne], the flash point in series [3] is 24 °C; in series [1] it was 18 °C; in series [2], 28 °C.
`N#Cc1ccccn1` [2-pyridinecarbonitrile]: the flash point was determined as 89.00 °C.
For `C=CC(C)(C)C` [3,3-dimethyl-1-butene], the flash point in series [1] was -29 °C; in series [2], -28 °C.
`CC1CNCC(C)C1` (stereo not drawn) [3,5-dimethylpiperidine]: the flash point turned out to be 21.50 °C.
In the case of `CCC(C)(O)C#CC(C)(O)CC` (stereo not drawn) [3,6-dimethyloct-4-yne-3,6-diol], the flash point came to 109.00 °C.
Compound `OCCCOCCCO` [3-(3-hydroxypropoxy)propan-1-ol] showed a flash point of 123.89 °C.
For the compound `Brc1cccnc1` [3-bromopyridine], the flash point turned out to be 51.00 °C.
Still for that read-out and setting: the value for `N#Cc1cccnc1` [3-pyridinecarbonitrile] was 84.00 °C.
Take `C=CC=C(C)C` [4-methyl-1,3-pentadiene]: the values for the flash point in series [1] and in series [2] were -18 °C and -34 °C, respectively.
As for `C#CCC(C)C` [4-methylpent-1-yne], the flash point was -4.00 °C.
On the same count and under the same terms, to `N#Cc1ccncc1` [4-pyridinecarbonitrile] belongs 88.00 °C.
`Cc1cccc(N)n1` [6-methyl-2-pyridinamine] gave a flash point of 103.00 °C.
On to `OC[C@@H](O)[C@@H](O)[C@H](O)[C@@H](O)CO` [(2R,3R,4R,5S)-hexane-1,2,3,4,5,6-hexol], for which the flash point was 148.90 °C.
The same measure, in the same setting: to `OC/C=C/CO` [(E)-but-2-ene-1,4-diol] belongs 128.00 °C; to `C/C=C\CC` [(Z)-pent-2-ene], -18.00 °C.
`CCN(CC)C(C)=O` [N,N-diethylacetamide] registered a flash point of 70.00 °C.
In the case of `CCN(C=O)CC` [N,N-diethylformamide], the flash point was 60.00 °C.
The same measure, in the same setting: the value for `C1CCC(NC2CCCCC2)CC1` [N-cyclohexylcyclohexanamine] was 103.00 °C.
As for `CC=CC` [but-2-ene], the flash point is -73.30 °C.
Still for that read-out and setting: the value for `OCC#CCO` [but-2-yne-1,4-diol] was 152.00 °C; that for `ClCOCCl` [chloro-(chloromethoxy)methane] was 19.00 °C.
As for `C[C@@H]1CCCC[C@@H]1C` [cis-1,2-dimethylcyclohexane], the flash point amounted to 11 °C in series [1] and 12 °C in series [2].
`C1=CCC=C1` [cyclopenta-1,3-diene] yielded a flash point of 0.00 °C.
With `NCCN` [ethane-1,2-diamine], the flash point came to 57.20 °C.
On to `CCOCC` [ethoxyethane], for which the flash point is -40.00 °C. In addition, the flash point in series [4] is -45.00 °C.
For `CCCCCCCN` [heptan-1-amine], the flash point came to 44.00 °C.
`OCCCCCCO` [hexane-1,6-diol] showed a flash point of 147.00 °C.
Still for that read-out and setting: to `CC(C)c1ccccc1` [isopropylbenzene] belongs 46.00 °C.
As to `CCCCC1CCCCC1` [n-butylcyclohexane], the flash point in series [1] was 48 °C; in series [2] it was 41 °C.
As to `CCCC1CCCCC1` [n-propylcyclohexane], the results for the flash point in series [1] and in series [2] were 31 °C and 35 °C, respectively.
In turn, `CCC(O)CC` [pentan-3-ol] gave a flash point of 40.00 °C.
Same read-out and setting: the value for `NCc1ccccc1` [phenylmethanamine] was 72.00 °C; that for `c1ccc(COCc2ccccc2)cc1` [phenylmethoxymethylbenzene] was 135.00 °C; that for `CC(O)CO` (stereo not drawn) [propane-1,2-diol] was 104.44 °C.
For `C/C=C/CCCC` [trans-2-heptene], the flash point in series [1] is -6 °C.
In series [1], `C/C=C/CCCCC` [trans-2-octene] came in with a flash point of 14 °C.
The compound `C/C=C/CC` [trans-2-pentene] displayed a flash point in series [1] of -45 °C.
Compound `CC/C=C/CCC` [trans-3-heptene] had a flash point in series [1] of -6 °C.
On the same count and under the same terms, the value for `CC/C=C/CCCC` [trans-3-octene] was 9 °C; that for `C/C=C/C(C)C` [trans-4-methyl-2-pentene] was -34 °C.
On the same count and under the same terms, to `CCC/C=C/CCC` [trans-4-octene] belongs 8 °C; to `C1CC[C@H]2CCCC[C@@H]2C1` [trans-decalin], 52 °C; to `C=CC1CCCCC1` [vinylcyclohexane], 21 °C.
